In data set [1] the target is T1, ScDHOase (Saccharomyces cerevisiae, UniProt P20051).
T1 construct: made in house; host or cells: E. coli BL21(DE3)
The data set can be described thus: fluorescence quenching binding assay. To be noted: for quenching of the intrinsic fluorescence of ScDHOase: 200 μM compound, 324 nm, excitation 280 nm. How it is done: Figure 7 The data used to calculate the Kd values of various DHOases. (A) The fluorescence emission spectra of ScDHOase with PLU of different concentrations (0–200 μM; 0, 10, 20, 50, 75, 100, 125, 150, 175, and 200 μM). The decrease in intrinsic fluorescence of protein was measured at 324 nm upon excitation at 280 nm with a spectrofluorometer. […] (B) The fluorescence emission spectra of huDHOase with PLU of different concentrations (0–200 μM). (C) The fluorescence emission spectra of StDHOase with PLU of different concentrations. (D) The fluorescence emission spectra of ScDHOase–R18A with PLU of different concentrations. (E) The fluorescence emission spectra of ScDHOase–T106A with PLU of different concentrations. […] (F) An aliquot amount of PLU was added to the enzyme solution to determine the Kd. The Kd was obtained by the following equation: ΔF = ΔFmax − Kd(ΔF/[PLU]). Data points are an average of 2–3 determinations within a 10% error.
The decrease in the intrinsic fluorescence of DHOase was measured with a spectrofluorometer (Hitachi F-2700; Hitachi High-Technologies, Japan). The Kd was obtained using the following equation: ΔF = ΔFmax − Kd(ΔF/[PLU]).
The Kd value of the purified DHOase was determined using the fluorescence quenching method as previously described for DHOase, DHPase, and DnaB helicase. Briefly, an aliquot of the compound was added into the solution containing DHOase (1 μM) and 50 mM HEPES at pH 7.0. The decrease in the intrinsic fluorescence of DHOase was measured at 324 nm upon excitation at 280 nm and 25 °C with a spectrofluorometer (Hitachi F-2700; Hitachi High-Technologies, Japan). The Kd was obtained using the following equation: ΔF = ΔFmax − Kd(ΔF/[PLU]).

For data set [2], the target named is T2, huDHOase (Homo sapiens, UniProt P27708).
T2 construct: huDHOase1456-1846-NdeI-N; made in house; host or cells: E. coli BL21(DE3)
T2 sequence (P27708 1456-1846): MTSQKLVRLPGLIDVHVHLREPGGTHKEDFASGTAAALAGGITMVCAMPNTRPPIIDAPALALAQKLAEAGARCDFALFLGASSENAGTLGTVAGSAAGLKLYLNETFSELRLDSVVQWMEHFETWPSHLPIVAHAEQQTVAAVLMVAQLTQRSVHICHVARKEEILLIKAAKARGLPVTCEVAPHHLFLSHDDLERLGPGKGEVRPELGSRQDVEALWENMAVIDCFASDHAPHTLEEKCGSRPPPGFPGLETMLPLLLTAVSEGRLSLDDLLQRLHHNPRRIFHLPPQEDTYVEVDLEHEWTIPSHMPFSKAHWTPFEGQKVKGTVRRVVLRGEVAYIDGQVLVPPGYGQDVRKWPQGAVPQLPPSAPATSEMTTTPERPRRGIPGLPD
The data set can be described thus: rapid spectrophotometric DHOase enzyme assay (hydrolysis of DHO). The format is biochemical. Conditions: for inhibition of huDHOase (in words): 200 μM for the compounds of Figure 2, AZT concentration not given; for decrease of the activity of huDHOase: 200 μM compound in the standard assay. The procedure:
A rapid spectrophotometric assay was used to determine the activity of DHOase. Briefly, the hydrolysis of DHO was measured at 25 °C as the decrease in absorbance at 230 nm. The purified DHOase was added to a 2 mL solution containing 0.5 mM DHO and 100 mM Tris–HCl at pH 8.0 to start the reaction. […] The hydrolysis of DHO was monitored using a UV/Vis spectrophotometer (Hitachi U 3300; Hitachi High-Technologies, Tokyo, Japan). A unit of activity was defined as the amount of enzyme catalyzing the hydrolysis of 1 μmol DHO/min, and the specific activity was expressed in terms of units of activity per mg of enzyme. The kinetic parameters Km and Vmax were determined from a nonlinear plot by fitting the hydrolyzing rate from individual experiments to the Michaelis–Menten equation (Enzyme Kinetics module of Sigma-Plot; Systat Software, Chicago, IL, USA).

Data set [3] addresses T1, ScDHOase. To be noted: cited from earlier work.
In data set [4] the test system is Plasmodium falciparum. Set-up: method as in PMID 2675756. Conditions: read-out: concentration giving 50% growth inhibition of parasites; cited from earlier work.
Data set [5] deals with 4T1 cells. The data set can be described thus: wound-healing assay. It counts as cell-based, mouse. To be noted: 5-FU 5 μM. How it is done:
The wound-healing assay was performed to study whether PLU can inhibit 4T1 cell migration. Briefly, 4T1 cells were seeded in 24-well plates, incubated in serum-reduced medium for 6 h, wounded in a line across the well with a 200 μL pipette tip, and washed twice with the serum-reduced medium. After different treatments, cells were incubated for 24 h to allow migration.

The subject of data set [6] is 4T1 cells. The data set can be described thus: clonogenic formation assay. The format is cell-based, mouse. To be noted: 5-FU 5 μM. The procedure:
A clonogenic formation assay was used to assess the 4T1 cell growth to study whether the PLU can inhibit 4T1 cell proliferation. Briefly, 4T1 cells were seeded at a density of 10^3 cells per well into 6-well plates and incubated overnight for attachment. After different treatments, plates were incubated for 5–7 days to allow clonogenic growth. After washing with PBS, colonies were fixed with methanol and stained with 0.5% crystal violet for 20 min, and the number of colonies was counted under a light microscope.

Data set [7] is described as follows: in vitro. To be noted: mouse. The format is cell-based, mouse. The procedure: The 4T1 cells (1 × 10^4) were incubated with PLU in a 100 μL volume. After 24 h, the anticancer potentiality was estimated.
For data set [8], the system named is 4T1 cells. Description: chromatin condensation assay (Hoechst staining). It counts as cell-based, mouse. To be noted: 5-FU 5 μM. The procedure: The apoptosis in 4T1 cells was assayed with Hoechst 33342 staining. The 4T1 cells were seeded in 6-well plates at a density of 5 × 10^5 cells per well in a volume of […] of culture medium. Cells were allowed to adhere for 16 h. After different treatments, cells were incubated for an additional 24 h, washed with PBS, stained with the Hoechst dye (1 μg·mL^−1) in the dark at RT for 10 min, and imaged using an inverted fluorescence microscope (Axiovert 200 M; Zeiss Axioplam, Oberkochen, Germany) at excitation and emission wavelengths (λem) of 360 and 460 nm, respectively. The apoptotic index was calculated as follows: apoptotic index = apoptotic cell number/(apoptotic cell number + nonapoptotic cell number).

“Also recorded” adds a separate entry of the source.

The term mortality denotes the share of the test organisms that died. A high value points to fewer survivors. In general, Kd refers to the equilibrium constant for the complex coming apart. Low readings indicate a tighter complex, high ones a looser complex.

T1 sequence (P20051 whole entry): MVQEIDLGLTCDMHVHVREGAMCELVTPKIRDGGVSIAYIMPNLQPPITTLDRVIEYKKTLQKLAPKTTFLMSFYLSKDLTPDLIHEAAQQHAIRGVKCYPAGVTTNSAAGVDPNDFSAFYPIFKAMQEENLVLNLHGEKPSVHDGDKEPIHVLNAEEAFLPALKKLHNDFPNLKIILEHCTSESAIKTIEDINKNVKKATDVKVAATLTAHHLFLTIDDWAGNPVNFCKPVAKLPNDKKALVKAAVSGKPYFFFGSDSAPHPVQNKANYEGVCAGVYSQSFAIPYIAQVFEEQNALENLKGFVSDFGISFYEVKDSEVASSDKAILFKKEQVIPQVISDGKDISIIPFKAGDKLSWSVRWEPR

As for `Nc1n[nH]c(N)n1` [3,5-diamino-1,2,4-triazole], the “quenching of the intrinsic fluorescence of ScDHOase” value (“quenching” below) in data set [1] is recorded as 3.9%. Besides, in data set [2], the “inhibition of huDHOase (in words)” value was “None of these compounds decreased the activity of huDHOase”.

Take `Nc1nc[nH]n1` [3-amino-1,2,4-triazole]: the “quenching” value in data set [1] is listed as 2.8%. The “inhibition of huDHOase (in words)” value in data set [2] is reported as “None of these compounds decreased the activity of huDHOase”.

Consider `Nc1c[nH]c(=O)[nH]c1=O` [5-AU, 5-aminouracil], for which the “λmax of ScDHOase emission (red shift)” value in data set [3] is “from 324 to 335.5”. For the same molecule, the “inhibition of huDHOase (in words)” value in data set [2] is “did not inhibit the activity of huDHOase”.

Turning to `O=C(O)c1[nH]c(=O)[nH]c(=O)c1F` [5-FOA, 5-fluoroorotate], the “quenching” value in data set [1] turned out to be 78.2%. The IC50 in data set [4] was 0.006 µM. For the same molecule, the “decrease of the activity of huDHOase” value in data set [2] amounted to 26%.

`O=c1[nH]cc(F)c(=O)[nH]1` [5-FU, 5-fluorouracil]: the Migration rate in data set [5] is 65%. Moreover, the Colony count in data set [6] came to 54%. This molecule showed a mortality at 24 h, 5 μM in data set [7] of 27%. The “λmax of ScDHOase emission (red shift)” value in data set [3] is listed as “from 324 to 335.5”. Besides, the “inhibition of huDHOase (in words)” value in data set [2] is reported as “did not inhibit the activity of huDHOase; also recorded: cannot inhibit DHOase”. The Apoptotic rate in data set [8] was 26%.

For the molecule `O=C(O)CC1NC(=O)NC1=O` (stereo not shown) [5-HAA, 5-hydantoinacetic acid], the “quenching” value in data set [1] is on record as 1.5%. Further, the “inhibition of huDHOase (in words)” value in data set [2] is recorded as “did not inhibit huDHOase”.

For the molecule `CSc1nnn[nH]1` [5-methylthio-1H-tetrazole], the “quenching” value in data set [1] amounted to 2.3%. The “inhibition of huDHOase (in words)” value in data set [2] is listed as “None of these compounds decreased the activity of huDHOase”.

Regarding `Cc1cn([C@H]2C[C@H](N=[N+]=[N-])[C@@H](CO)O2)c(=O)[nH]c1=O` [AZT], in data set [2], the “inhibition of huDHOase (in words)” value was “did not inhibit the activity of huDHOase”.

Consider `CC(=O)NO` [Acetohydroxamate], for which the “quenching” value in data set [1] was 2.5%.

`O=C1CCC(C(=O)O)NC(=O)N1` (stereo not shown) [DDCA, 2,7-dioxo-1,3-diazepane-4-carboxylic acid]: the “quenching” value in data set [1] came out at 3.0%. The “inhibition of huDHOase (in words)” value in data set [2] is on record as “did not inhibit huDHOase”.

In the case of `N=C1NC(=O)CC(C(=O)O)S1` (stereo not shown) [ITCA, 2-imino-4-oxo-1,3-thiazinane-6-carboxylic acid], the “quenching” value in data set [1] worked out at 15.6%. Moreover, the “decrease of the activity of huDHOase” value in data set [2] is reported as 12%.

Turning to `CC(=O)NCCc1cnc[nH]1` [N-ω-acetylhistamine], the “quenching” value in data set [1] was 2.8%. In addition, the “inhibition of huDHOase (in words)” value in data set [2] was “None of these compounds decreased the activity of huDHOase”.

For the molecule `O=C(O)CC(O)C(=O)O` (stereo not shown) [malate], in data set [1], the “quenching” value is 10.9%. For the same molecule, the “decrease of the activity of huDHOase” value in data set [2] stood at 6%.

For the molecule `O=C(O)c1cc(=O)[nH]c(=O)[nH]1` [orotic acid], in data set [1], the Kd was 198.3 ± 1.2 µM and the “quenching” value amounted to 65.9%.

The values are drawn from publication PMC8267945, “Plumbagin, a Natural Product with Potent Anticancer Activities, Binds to and Inhibits Dihydroorotase, a Key Enzyme in Pyrimidine Biosynthesis” (International Journal of Molecular Sciences, 2021).
